The values below come from patent US9974760B2, “Compositions and methods for treating cancer” (Chemo-Enhanced LLC, priority 2011, dated 2018).

One experiment has as its system cancer cells. The experiment is described as follows: Taxol induced cancer cell death with pathway inhibitors/activators (FIGS. 4A-4D). The class given is cell-based. The settings on record: added to Taxol. An excerpt:
The molecular mechanism involved in C6-ceramide induced chemosensitization effects was examined by focusing on taxol.
To further confirm the requirement of AMPK activation in this synergistic effect, siRNA directed against AMPK can be used.

Experiment [1] concerns L3.6 pancreatic cancer cells. The experiment is described as follows: Cell viability / cell death (MTT) in L3.6 pancreatic cancer cells. The settings on record: LY 1 μM, rapamycin 100 nM, U0126 1 μg/ml; 48 hours. In kind it is cell-based, human. The protocol: L3.6 pancreatic cancer cells, cultured either in the basic DMEM medium or with 10% FBS, were treated with the indicated doses of taxol in the presence or absence of C6-ceramide (10 μg/ml) for 48 hours and cell viability was detected by MTT assay (FIGS. 1A-1B). L3.6 cells, cultured either in basic DMEM medium or with 10% FBS, were treated with the indicated dose of C6-ceramide in the presence or absence of taxol (1.5 μg/ml) for 48 hours and cell viability was detected by MTT assay (FIGS. 1C-1D). Mitomycin C (10 μg/ml) was always present in the media to prevent cell proliferation from occurring. The data represents the mean±SD of at least triplicate experiments. *P<0.05 versus group without C6-ceramide presents (FIGS. 1A-1B). **P<0.05 versus group without taxol presents (FIGS. 1C-1D).
(§1) FIGS. 3A-3H show synergistic anti-tumor effects of C6-ceramide and gemcitabine in vivo and in vitro. SCID/Beige/Taconic nude male mice (22-25 g; 6-8 weeks old) were ear tagged and randomized into 4 different groups (Control, Ceramide, gemcitabine, Ceramide+gemcitabine) combining 5 mice each prior to inoculation subcutaneous (s.c.) with 2×10^6 L3.6 cells in a 0.1 ml volume into the internal surface of the right thigh. Treatment was started 4 days after L3.6 cell injection with thrice weekly (3×/wk) intraperitoneal (i.p.) injections of gemcitabine (two doses: 5.0 and 10.0 mg/ml) with or without C6-ceramide (10 mg/ml) for 2 weeks. Mouse survival (FIGS. 3A, 3B, and 3E) and tumor volume (in cm^3; FIGS. 3C and 3D) were recorded (FIG. 3E). Pancreatic cancer cell lines, including L3.6 cells (FIG. 3F), Panc-1 cells (FIG. 3G) and MIA-PaCa2 cells (MIA, FIG. 3H) were cultured in basic DMEM medium and were treated with gemcitabine (Gem, 1 μg/ml). Mitomycin C was always present in the media to prevent cell proliferation from occurring. The data represent the mean±SD of at least triplicate experiments. *P<0.05 versus group without C6-ceramide presents. The experiments were repeated at least three times and similar results were observed.
(§2) Pancreatic cancer cell lines L3.6 cells were left untreated or treated with gemcitabine (Gem, 1 μg/ml) or taxol (1.5 μg/ml) in the presence or absence of C6-ceramide (10 μg/ml) for 2, 4 and 6 hours, AKT/mTORC1 and ERK activation were detected by Western Blot using indicated antibodies (FIGS. 5A and 5C). p-AKT (S473) and p-ERK at 4 hour time intervals for each treatment quantified (FIGS. 5B and 5D). L3.6 cells were pretreated with various inhibitors including PI3K/AKT inhibitor LY 294002 (LY, 1 μM), mTORC1 inhibitor rapamycin (100 nM), MEK/ERK inhibitor U0126 (1 μg/ml) or gemcitabine (1 μg/ml) for 48 hours, cell death was detected 48 hours later (FIG. 5E). The effects of the various inhibitors described above on AKT/mTORC1 and ERK activation were also detected by Western Blots using commercial available antibodies (FIG. 5F). *P<0.05 versus group without C6-ceramide presents. The experiments were repeated at least three times and similar results were observed.
Cell viability was measured by the 3-[4m5-dimethylthylthiazol-2-y]-2.5 diphenyltetrazolium bromide (MTT) method, as described in Cao et al. (2009) Sci. Signal, 2:RA17. Briefly, the cells were collected and seeded in 96-well plate at a density of 2×10^5 cells/cm^2. Different seeding densities were optimized at the beginning of the experiments. After overnight incubation cells were exposed to fresh medium containing indicated reagents at 37° C. After incubation for different time periods, 20 ul of MTT tetrazolium (Sigma, St. Louis, Mo.) salt dissolved in Hank's balanced solution at a concentration of 5 mg/ml was added to each well and incubated in a CO2 incubator for an additional 4 hours. The medium was subsequently aspirated from each well and 150 ul of DMSO (Sigma, St. Louis, Mo.) was added to dissolve formazan crystals and the absorbance of each well was obtained using a Dynatech MR5000 plate reader at a test wavelength of 490 nm with a reference wavelength of 630 nm. […]

Another experiment concerns Panc-1 cells. The experiment is described as follows: Cell death in Panc-1 pancreatic cancer cells. The following applies: Panc-1; gemcitabine 1.5 μg/ml. In kind it is cell-based. The protocol: as §1, with “Pancreatic cancer cell lines, including L3.6 cells (FIG. 3F), Panc-1 cells (FIG. 3G) and MIA-PaCa2 cells (MIA, FIG. 3H) were cultured in basic DMEM medium and were treated with gemcitabine (Gem, 1 μg/ml).” left out
(§3) Cell viability was measured by the 3-[4m5-dimethylthylthiazol-2-y]-2.5 diphenyltetrazolium bromide (MTT) method, as described in Cao et al. (2009) Sci. Signal, 2:RA17. Briefly, the cells were collected and seeded in 96-well plate at a density of 2×10^5 cells/cm^2. Different seeding densities were optimized at the beginning of the experiments. […] The medium was subsequently aspirated from each well and 150 ul of DMSO (Sigma, St. Louis, Mo.) was added to dissolve formazan crystals and the absorbance of each well was obtained using a Dynatech MR5000 plate reader at a test wavelength of 490 nm with a reference wavelength of 630 nm.
(§4) The possible combination effect of C6-ceramide on gemcitabine-induced cytotoxicity (in vitro) and regression (in vivo) of the L3.6 pancreatic cancer cell was also tested according to the methods described in Examples 2 and 3. […] A synergistic anti-tumor effect of gemcitabine and C6-ceramide in multiple pancreatic cancer cells in vitro was also determined.

The test system of a further experiment is MIA-PaCa2 cells. The experiment is described as follows: Cell death in MIA-PaCa2 pancreatic cancer cells. In kind it is cell-based. The settings on record: MIA cells; gemcitabine 1.5 μg/ml. The method, then: as §1, with “Pancreatic cancer cell lines, including L3.6 cells (FIG. 3F), Panc-1 cells (FIG. 3G) and MIA-PaCa2 cells (MIA, FIG. 3H) were cultured in basic DMEM medium and were treated with gemcitabine (Gem, 1 μg/ml).” left out
as §3, §4

The test system of a further experiment is L3.6 pancreatic cells. The class given is in vivo. The method, then: Treatment was started 4 days after L3.6 cell injection with thrice weekly (3×/wk) intraperitoneal (i.p.) injections of paclitaxel 3.0 mg/ml with or without C6-ceramide (10 mg/ml) for 2 weeks. Mouse survival (FIGS. 2A and 2C), tumor volume (in cm^3; FIG. 2B), mouse body weight (in grams) were recorded (FIG. 2E). The average rate of tumor development was calculated by total tumor volume dividing by total number of days monitored (FIG. 2C).
as §1, with “SCID/Beige/Taconic” for “FIGS. 3A-3H show synergistic anti-tumor effects of C6-ceramide and gemcitabine in vivo and in vitro. SCID/Beige/Taconic”, “occurring.” for “occurring. The data represent the mean±SD of at least triplicate experiments. *P<0.05 versus group without C6-ceramide presents. The experiments were repeated at least three times and similar results were observed.”
SCID/Beige/Taconic male mice were inoculated with 2×10^6 L3.6 pancreatic cells and treated […] 4 days post tumor implant with thrice weekly (3×/wk) intraperitoneal (I.P.) injections of paclitaxel (taxol) 3.0 mg/ml or gemcitabine (Gem) 10 mg/ml after treatment and were autopsied when near death (as per IRB committee). Mouse survival, tumor volume (in cm^3), and body weight (in grams) were recorded. Average rate of tumor development was calculated by dividing total tumor volume by total number of days monitored.
The possible combination effect of C6-ceramide on gemcitabine-induced cytotoxicity (in vitro) and regression (in vivo) of the L3.6 pancreatic cancer cell was also tested according to the methods described in Examples 2 and 3.

Another experiment concerns AKT/mTORC1. The experiment is described as follows: Western Blot of AKT/mTORC1 activation in L3.6 cells. The class given is cell-based. The protocol:
as §2, with “5E).” for “5E). The effects of the various inhibitors described above on AKT/mTORC1 and ERK activation were also detected by Western Blots using commercial available antibodies (FIG. 5F). *P<0.05 versus group without C6-ceramide presents. The experiments were repeated at least three times and similar results were observed.”
(§5) As described in Cao et al. (2009) Sci. Signal, 2:RA17, aliquots of 30-40 μg of protein from each sample (treated as indicated in the legends) were separated by 10% SDS-polyacrylamide gel electrophoresis (SDS-PAGE) and transferred onto a polyvinylidene difluoride (PVDF) membrane (Millipore, Bedford, Mass.). After blocking with 10% instant nonfat dry milk for 1 hour, membranes were incubated with specific antibodies overnight at 4° C. followed by incubation with secondary antibodies (HRP-conjugated anti-rabbit or anti-mouse IgG at the appropriate dilutions) for 60 minutes to 1 hour at room temperature. Antibody binding was detected with the enhanced chemiluminescence (ECL) detection system (Amersham Biosciences, Piscataway, N.J.).
For orientation: In western blotting, separated proteins are transferred to a membrane and probed.

A further experiment has as its system ERK. The experiment is described as follows: Western Blot of ERK activation in L3.6 cells. In kind it is cell-based. The protocol: as §2, with “5E).” for “5E). The effects of the various inhibitors described above on AKT/mTORC1 and ERK activation were also detected by Western Blots using commercial available antibodies (FIG. 5F). *P<0.05 versus group without C6-ceramide presents. The experiments were repeated at least three times and similar results were observed.”
as §5

In experiment [2] the test system is L3.6 pancreatic cancer cells. The experiment is described as follows: Cell viability / cell death (MTT) in L3.6 pancreatic cancer cells. In kind it is cell-based, human. The settings on record: gemcitabine 1.5 μg/ml.

Entries after “also recorded” stand apart in the source; their conditions may differ.

Turning to `c1cc(-c2cnn3cc(-c4ccc(OCCN5CCCCC5)cc4)cnc23)ccn1` [Compound C], in the experiment with cancer cells, the “effect on Taxol induced cancer cell death” value is recorded as “inhibits”.
`N#CC(=C(N)Sc1ccccc1N)C(C#N)=C(N)Sc1ccccc1N` [U0126, 1,4-diamino-2,3-dicyano-1,4-bis [2-aminophenylthio]butadiene]: in experiment [1], the “effect on gemcitabine induced L3.6 cell death” value is recorded as “largely enhanced; also recorded: sensitized” and the “effect on taxol induced L3.6 cell death” value is “largely enhanced; also recorded: sensitized”.
For `NC(=O)c1ncn([C@@H]2O[C@H](CO)[C@@H](O)[C@H]2O)c1N` [AICAR], in the experiment with cancer cells, the “effect on Taxol induced cancer cell death” value is “enhance”.
With `Nc1ccn([C@@H]2O[C@H](CO)[C@@H](O)C2(F)F)c(=O)n1` [gemcitabine], the cancer cell death result (in the experiment on Panc-1 cells; with MIA-PaCa2 cells; in experiment [2]) was “moderate effect” throughout. Also, the anti-tumor effect result in the experiment with L3.6 pancreatic cells (gemcitabine 10 mg/kg) is on record as “moderate anti-tumor effect”. Besides, the “survival and tumor growth” value with L3.6 pancreatic cells (low dose gemcitabine 5 mg/kg) was “limited effect”. Also, the “AKT/mTORC1 activation / signaling” value in the experiment with AKT/mTORC1 (L3.6 cells, Western Blot) is recorded as “no effect”. Also, in the experiment on AKT/mTORC1 (Taxol alone), the PI3K/AKT/mTOR activation result is “no effect”. Also, in the experiment on AKT/mTORC1 (added to C6-ceramide), the “effect on C6-ceramide induced AKT de-phosphorylation or inhibition” value was “dramatically enhanced”. In the experiment with ERK (L3.6 cells, Western Blot), the “ERK activation / signaling” value is on record as “no effect”. For the same compound, the “effect on C6-ceramide inhibition of ERK activation” value in the experiment with ERK (added to C6-ceramide) is “enhanced”.
Regarding `CCCCCCCCCCCCCCCCCCOC[C@H](COP(=O)(O)O[C@H]1[C@H](O)[C@@H](O)[C@H](O)C[C@H]1OC)OC` [AKT inhibitor II], in the experiment with L3.6 pancreatic cells (inhibitor plus taxol, pancreatic cancer model SCID mice, expected), the “Taxol induced cell death in vivo” value is listed as “enhance”. Besides, the “effect on Taxol induced cancer cell death” value in the experiment with cancer cells is on record as “enhance”.
